Assay results reported in ChEMBL document CHEMBL4321846, “Discovery of a Potent and Selective Oral Inhibitor of ERK1/2 (AZD0364) That Is Efficacious in Both Monotherapy and Combination Therapy in Models of Nonsmall Cell Lung Cancer (NSCLC)” (J Med Chem, 2019).

Legend:
[1] = molecular target: T1, Mitogen-activated protein kinase; ERK1/ERK2 (Homo sapiens, UniProt P27361+P28482); assay: Inhibition of ERK1/2 in human A375 cells assessed as inhibition of ERK phosphorylation after 2 hrs; type: cell-based
[2] = molecular target: T2, Mitogen-activated protein kinase 1 (Homo sapiens, UniProt P28482); assay: Inhibition of MEK U911-activated ERK2 (unknown origin) using ERKtide as substrate preincubated for 20 mins followed by substrate addition in presence of 1 mM ATP after 10 mins by rapidfire mass spectrometry analysis
T2 sequence (P28482 whole entry): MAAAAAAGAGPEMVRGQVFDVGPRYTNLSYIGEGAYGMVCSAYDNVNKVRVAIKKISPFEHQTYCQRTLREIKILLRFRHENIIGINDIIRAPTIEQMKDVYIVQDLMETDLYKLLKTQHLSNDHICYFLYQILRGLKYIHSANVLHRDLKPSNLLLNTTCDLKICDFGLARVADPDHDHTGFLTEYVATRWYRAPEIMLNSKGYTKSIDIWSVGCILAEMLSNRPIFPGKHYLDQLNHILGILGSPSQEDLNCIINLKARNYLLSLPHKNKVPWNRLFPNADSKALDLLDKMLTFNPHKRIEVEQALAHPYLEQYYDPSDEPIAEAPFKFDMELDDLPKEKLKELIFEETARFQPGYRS

[3] = molecular target: T2, Mitogen-activated protein kinase 1; assay: Inhibition of MEK U911-activated ERK2 (unknown origin) using ERKtide as substrate preincubated for 20 mins followed by substrate addition in presence of ATP at Km concentration after 20 mins by rapidfire mass spectrometry analysis
[4] = molecular target: T1, Mitogen-activated protein kinase; ERK1/ERK2; assay: Inhibition of ERK1/2 in human A375 cells assessed as inhibition of RSK phosphorylation after 2 hrs; type: cell-based
[5] = molecular target: T2, Mitogen-activated protein kinase 1
[6] = molecular target: T2, Mitogen-activated protein kinase 1; remark: listed apart in the source
[7] = molecular target: T2, Mitogen-activated protein kinase 1; remark: listed apart in the source
[8] = molecular target: T2, Mitogen-activated protein kinase 1; remark: listed apart in the source
[9] = molecular target: T2, Mitogen-activated protein kinase 1; remark: listed apart in the source
[10] = molecular target: T2, Mitogen-activated protein kinase 1; remark: listed apart in the source
[11] = molecular target: Voltage-gated inwardly rectifying potassium channel KCNH2 (Homo sapiens, UniProt Q12809)
Sequence of Voltage-gated inwardly rectifying potassium channel KCNH2 (Q12809 whole entry): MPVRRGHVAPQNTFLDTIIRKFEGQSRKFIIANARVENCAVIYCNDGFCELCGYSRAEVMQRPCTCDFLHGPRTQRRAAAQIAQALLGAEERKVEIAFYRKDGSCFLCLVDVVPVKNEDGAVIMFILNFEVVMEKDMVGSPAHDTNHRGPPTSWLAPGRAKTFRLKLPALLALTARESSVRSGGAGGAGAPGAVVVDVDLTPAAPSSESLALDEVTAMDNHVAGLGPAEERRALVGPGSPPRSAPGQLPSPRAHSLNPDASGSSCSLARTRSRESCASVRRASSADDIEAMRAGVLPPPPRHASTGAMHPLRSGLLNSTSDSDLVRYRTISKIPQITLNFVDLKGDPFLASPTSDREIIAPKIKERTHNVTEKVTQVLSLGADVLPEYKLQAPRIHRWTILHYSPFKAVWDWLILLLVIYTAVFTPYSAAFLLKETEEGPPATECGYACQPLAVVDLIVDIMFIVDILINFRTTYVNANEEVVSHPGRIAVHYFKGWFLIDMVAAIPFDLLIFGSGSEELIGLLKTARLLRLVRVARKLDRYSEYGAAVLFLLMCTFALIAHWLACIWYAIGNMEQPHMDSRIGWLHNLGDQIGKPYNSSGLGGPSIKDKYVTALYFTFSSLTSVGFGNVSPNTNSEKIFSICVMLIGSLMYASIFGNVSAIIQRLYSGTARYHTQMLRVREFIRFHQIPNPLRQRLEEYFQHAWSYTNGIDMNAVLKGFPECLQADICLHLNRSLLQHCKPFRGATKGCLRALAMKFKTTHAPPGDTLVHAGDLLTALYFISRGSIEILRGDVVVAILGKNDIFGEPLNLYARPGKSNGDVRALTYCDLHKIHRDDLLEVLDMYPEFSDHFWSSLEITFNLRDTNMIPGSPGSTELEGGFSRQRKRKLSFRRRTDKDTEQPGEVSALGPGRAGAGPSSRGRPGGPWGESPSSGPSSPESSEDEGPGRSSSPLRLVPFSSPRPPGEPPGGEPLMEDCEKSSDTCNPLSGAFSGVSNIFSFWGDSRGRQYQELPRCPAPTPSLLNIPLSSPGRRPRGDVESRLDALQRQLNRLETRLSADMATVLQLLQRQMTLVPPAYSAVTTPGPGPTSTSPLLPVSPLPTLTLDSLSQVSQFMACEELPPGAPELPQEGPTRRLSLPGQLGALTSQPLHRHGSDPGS

| IC50 [1] | IC50 [2] | IC50 [3] | IC50 [4] | Ka [5] | Ka [6] | T1/2 [7] | T1/2 [8] | Kdiss [9] | Kdiss [10] | Compound | IC50 [11] |
| --- | --- | --- | --- | --- | --- | --- | --- | --- | --- | --- | --- |
| > 14000 nM | 0.13 nM | < 0.3 nM | 10 nM | – | – | – | – | – | – | Cc1cnc(Nc2ccnn2C)nc1-c1cc2n(c1)CCN(Cc1cccc(Cl)c1)C2=O | – |
| – | – | – | – | 1.3 ×10⁻⁶ /M/s | 9.4 ×10⁻⁵ /M/s | 127 min | 291 min | 4.4 ×10⁻⁵ /s | – | O=C(Nc1ccc2[nH]nc(-c3ccncc3)c2c1)[C@@H]1CCN(CC(=O)N2CCN(c3ccc(-c4ncccn4)cc3)CC2)C1 | – |
| – | – | – | – | 1.3 ×10⁻⁶ /M/s | 7.5 ×10⁻⁵ /M/s | 35 min | 2 min | 7.4 ×10⁻³ /s | 4.1 ×10⁻⁴ /s | CC(C)Nc1cc(-c2c[nH]c(C(=O)N[C@H](CO)c3cccc(Cl)c3)c2)c(Cl)cn1 | – |
| – | – | – | – | 1.9 ×10⁻⁶ /M/s | 1.3 ×10⁻⁶ /M/s | 37 min | 11.9 min | 1 ×10⁻³ /s | 3.2 ×10⁻⁴ /s | Cc1cccc(CN2C(=O)c3cc(-c4nc(Nc5ccnn5C)ncc4C)cn3C[C@H]2C)n1 | – |
| 3.4 nM | 0.32 nM | < 0.3 nM | 38 nM | – | – | – | – | – | – | Cc1cnc(Nc2ccnn2C)nc1-c1cn2c(n1)C(=O)N(Cc1ccc(F)c(F)c1)[C@@H](C)C2 | 23000 nM |
